“Also recorded” adds a separate entry of the source.
Experiments:
[1] = tested on: NGLY1 deficient fibroblasts; assay: ROS levels, CellROX Deep Red Flow Cytometry Assay; format: cell-based, human; settings: PT1 72 hrs vs DMSO
Experimental: (§1) Methods: SURF1, POLG, and NGLY1 patient cells were supplemented with PT1 or DMSO (untreated control) for 48 hrs (n=3) and ATP levels measured by the CellTiter-Glo ATP Assay or for 72 hrs (n=3) and ROS levels were measured by the CellROX Deep Red Flow Cytometry Assay. Results were normalized to total protein concentration. Data are represented as the mean±standard error of the mean. Statistical significance was measured to p<0.05.

[2] = tested on: SURF1 deficient fibroblasts; assay: ROS levels, CellROX Deep Red Flow Cytometry Assay; format: cell-based, human; settings: PT1 72 hrs vs DMSO
Experimental: as §1

[3] = tested on: POLG deficient fibroblasts; assay: ROS levels, CellROX Deep Red Flow Cytometry Assay; format: cell-based, human; settings: PT1 72 hrs vs DMSO
Experimental: as §1

[4] = tested on: SURF1-deficient fibroblasts; assay: Cell viability by Calcein AM in mitochondrial stressor media; format: cell-based, human; settings: SURF1-deficient fibroblasts; FIG. 2A
Experimental: (§2) Fibroblasts previously derived from four patients with primary mitochondrial disease (Surf1, Complex I, Cox10, Polg), three patients with NGLY1 deficiency and four normal controls were used for the study. All samples were obtained with informed consent and approved by the Stanford IRB. Fibroblasts were maintained in DMEM medium containing 8.3 mM glucose and supplemented with 10% fetal bovine serum (FBS)(Fisher Scientific), 1% Penicillin-Streptomycin (10,000 U/mL)(Life Technologies), 1% glutaMAX (Life Technologies), 1% uridine (5 mg/ml) and 1% pyruvate (11 mg/ml) at 37° C., 5% CO2. For the screening of various compounds, 15×10^3 cells/500 ul media were seeded in quadruplets on 24 well microtiter plates. The following day, the medium was removed, wells washed with PBS and replaced with a mitochondrial stressor media containing DMEM, 1% Penicillin-Streptomycin (10,000 U/mL)(Life Technologies), 10% FCS (Fisher Scientific), 1 mM Galactose (Sigma Aldrich), and 25 μM sodium azide with or without the following compounds: 1 mM AICAR (Medchem Express), 1 mM Metformin (Sigma Aldrich), 100 μM PT1 (Santa Cruz Biotechnology), 100 μ[…] Express). Following treatment with the various compounds, tissue cultures were analyzed for growth, oxygen consumption rate, and ATP levels. Methods: Cell growth was measured by a fluorometric method using Calcein AM (Anaspec). Mitochondrial stressor media was removed, wells washed with PBS and then incubated with 500 ul/well of 800 nM Calcein AM in PBS for 30 min at 37 C, 5% CO2. Cell viability was measured by values obtained using a 485 nm excitation with the Flouroskan Ascent Microplate Fluorometer (Thermo Scientific).

[5] = tested on: COX10-deficient fibroblasts; assay: as above; format: cell-based, human; settings: FIG. 2B
Experimental: as §2

[6] = tested on: POLG-deficient fibroblasts; assay: as above; format: cell-based, human; settings: FIG. 2D
Experimental: as §2

[7] = tested on: NGLY1 deficient fibroblasts; assay: as above; format: cell-based, human; settings: NGLY-1 deficient fibroblasts from three individuals; +PT1 vs −PT1; FIG. 2E
Experimental: (§3) Fibroblasts previously derived from four patients with primary mitochondrial disease (Surf1, Complex I, Cox10, Polg), three patients with NGLY1 deficiency and four normal controls were used for the study. All samples were obtained with informed consent and approved by the Stanford IRB. Fibroblasts were maintained in DMEM medium containing 8.3 mM glucose and supplemented with 10% fetal bovine serum (FBS)(Fisher Scientific), 1% Penicillin-Streptomycin (10,000 U/mL)(Life Technologies), 1% glutaMAX (Life Technologies), 1% uridine (5 mg/ml) and 1% pyruvate (11 mg/ml) at 37° C., 5% CO2.
(§4) For the screening of various compounds, 15×10^3 cells/500 ul media were seeded in quadruplets on 24 well microtiter plates. The following day, the medium was removed, wells washed with PBS and replaced with a mitochondrial stressor media containing DMEM, 1% Penicillin-Streptomycin (10,000 U/mL)(Life Technologies), 10% FCS (Fisher Scientific), 1 mM Galactose (Sigma Aldrich), and 25 μM sodium azide with or without the following compounds: 1 mM AICAR (Medchem Express), 1 mM Metformin (Sigma Aldrich), 100 μM PT1 (Santa Cruz Biotechnology), 100 μM A-769662 (Medchem Express), 100 μM C24 (Medchem Express). Following treatment with the various compounds, tissue cultures were analyzed for growth, oxygen consumption rate, and ATP levels.
(§5) Methods: Cell growth was measured by a fluorometric method using Calcein AM (Anaspec). Mitochondrial stressor media was removed, wells washed with PBS and then incubated with 500 ul/well of 800 nM Calcein AM in PBS for 30 min at 37 C, 5% CO2. Cell viability was measured by values obtained using a 485 nm excitation with the Flouroskan Ascent Microplate Fluorometer (Thermo Scientific).

CI-deficient fibroblasts = assay: as above; format: cell-based, human; settings: FIG. 2C
Experimental: as §3, §4, §5

PGC-1α = assay: Gene expression after PT1 treatment; format: cell-based, human; settings: 48 hr treatment with PT1; FIG. 5B
[8] = tested on: sodium iodate (SI) induced AMD model; assay: Sodium iodate (SI) induced AMD model: funduscopy, H&E retinal sections, ONL thickness, ERG; format: in vivo, mice
Experimental: Methods: To generate an AMD model, mice were treated with 100 mg/kg of PT1 (or vehicle) 24 hrs and 12 hrs prior to SI (or vehicle) treatment, then treated every 24 hrs for 3 days post-SI. Both PT1 and SI were delivered by intraperitoneal (IP) injections and animals were phenotyped 3 days post-SI administration. Mice were anesthetized and their pupils dilated using 1% atropine sulfate, 2.5% phenylephrine hydrochloride, and 0.5% proparacaine hydrochloride. Funduscopy was performed using the Micron III small animal retinal imaging AD camera (Phoenix Research Laboratories, INC). Retinal function was evaluated by recording of dark- and light-adapted ERG (Espion E2 System, Diagnosys LLC). Mice were dark adapted overnight before ERG recording, and all procedures were performed in the dark or under dim red light. Mice were anesthetized and their pupils dilated as described above. For the ERG recordings, electrodes were placed on the center of cornea. A ground needle electrode was placed in the base of the tail, and reference needle electrode was placed subdermally between the eyes. The a-wave amplitude was measured from the baseline to the trough of the a-wave, and b-wave amplitude was measured from the trough of the a-wave to the peak of the b-wave.

For `Cc1cc(-c2ccc(C=C3SC(=S)N(c4ccc(Cl)c(C(=O)O)c4)C3=O)o2)c([N+](=O)[O-])cc1C` [PT1], the “reduction in ROS levels” value [1] was 18%, the “reduction in ROS levels” value [2] was 10% and the “reduction in ROS levels” value [3] was 15%. For the same compound, the survival / viability [4] was “largest improvement”, the survival / viability [5] was “improves survival; also recorded: significantly improved survival” and the survival / viability [6] was “improves survival; also recorded: significantly improved survival”. The improvement in viability [7] was ≤ 60% and up to 60%, the survival / viability (CI-deficient fibroblasts) was “improves survival; also recorded: significantly improved survival” and the “increase in expression of PGC-1α” value (PGC-1α) was 2.4 fold. The “funduscopy, signs of retinal degeneration (white deposits)” value ([8]; +SI, +PT1 vs +SI, 100 mg/kg IP, FIG. 9A, 100 mg/kg) was “improved signs of retinal degeneration; also recorded: Fewer white deposits”, the “H&E retinal sections: ONL thinning” value ([8]; +SI, +PT1 vs +SI, FIG. 9B) was “protection against ONL thinning; also recorded: protects against ONL thinning” and the “H&E retinal sections: melanin debris” value ([8]; +SI, +PT1 vs +SI, FIG. 9B) was “decreases melanin debris”. For the same compound, the “H&E retinal sections: photoreceptor IS/OS morphology” value ([8]; +SI, +PT1 vs +SI, FIG. 9B) was “prevents alterations in photoreceptor IS/OS morphology”, the ONL thickness ([8]; +SI, +PT1 vs +SI, FIG. 9C) was “greater thickness; also recorded: significantly improved” and the “electroretinography, rod responses (scotopic a-wave and b-wave)” value ([8]; +SI, +PT1 vs +SI, FIG. 9D) was “improved electrical response; also recorded: significantly increased rod responses”. For the same compound, the “ONL thickness, PT1 treatment alone” value ([8]; −SI, +PT1 vs −SI) was “does not alter ONL thickness” and the “funduscopy, PT1 treatment alone” value ([8]; −SI, +PT1 vs −SI) was “similar, normal tissue; also recorded: does not alter funduscopy results”.

— patent publication US12377077B2, “Methods and formulations to treat mitochondrial dysfunction” (The Board of Trustees of the Leland Stanford Junior …, priority 2018, dated 2025)
